A short description of series [1]: Shelf-life of tablets / pharmaceutical compositions. It is filed as physicochemical. An excerpt:
However, in view of the intrinsic fragility of perindopril, the tert-butylamine salt has not been capable of providing a complete solution to the problems of the product's stability to heat and humidity. Indeed, for marketing, tablets of perindopril tert-butylamine salt must, in certain countries, be protected with additional packaging measures. Moreover, even for temperate-climate countries, that instability has made it impossible to obtain a shelf-life of more than 2 years for the tablets. Finally, for marketing of the tablets, they have to be marked “to be stored at a temperature less than or equal to 30 degrees”.

A short description of series [2]: Long-term stability study of immediate-release tablets, perindopril assayed by inverse-phase HPLC. As to conditions: for Percentage remaining (%): 6 months; for degradation rate: after 6 months. It is filed as physicochemical. The procedure: Long-term stability studies carried out under very precise temperature and humidity conditions have yielded the results indicated in the Table hereinbelow.
In that study, perindopril was assayed by inverse-phase high-pressure liquid chromatography using, as eluant, an aqueous phase (comprising sodium heptane-sulphonate, and the pH of which is 2) and acetonitrile (67/33). Detection of the product was carried out by UV (215 nm).
The study was carried out using immediate-release tablets containing either 2.4 mg of the arginine salt of perindopril or 2.0 mg of the tert-butylamine salt of perindopril (each of the two tablets containing 1.7 mg of perindopril). The tablets were assayed 6 months after the start of storage of the tablets at different temperatures and different relative humidities (% R.H.).
The arginine salt used in this study is the L-arginine salt. It has been prepared according to a classical method of salification of organic chemistry.

In the case of `CCC[C@H](N[C@@H](C)C(=O)N1[C@H](C(=O)O)C[C@@H]2CCCC[C@@H]21)C(=O)OCC.N=C(N)NCCC[C@H](N)C(=O)O` [Arginine salt of perindopril], the shelf-life entry in series [1] (pharmaceutical compositions, considered from the 6-month results) is listed as “at least three years”. For the same molecule, the “Percentage remaining (%)” value in series [2] (25° C., 60% R.H.) is 99.5%; in series [2] (30° C., 60% R.H.) it was 98.1%; in series [2] (40° C., 75% R.H.) it was 98.6%. Besides, in series [2], the degradation rate result was “practically no degradation”.

As for `CC(C)(C)N.CCC[C@H](N[C@@H](C)C(=O)N1[C@H](C(=O)O)C[C@@H]2CCCC[C@@H]21)C(=O)OCC` [tert-Butylamine salt of perindopril], the shelf-life in series [1] (tablets, temperate-climate countries) was not above 2 years. Besides, the “Percentage remaining (%)” value in series [2] (25° C., 60% R.H.) is reported as 101.0%; in series [2] (30° C., 60% R.H.) it was 94.4%; in series [2] (40° C., 75% R.H.), 67.2%. In addition, in series [2], the degradation rate entry was “approximately 33%”.

Values taken from patent US6696481B2, “Salt of perindopril and pharmaceutical compositions containing it” (Les Laboratoires Servier, priority 2003, dated 2004).
